Measurements published in ChEMBL document CHEMBL1201862, “PubChem BioAssay data set” (2004).
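96-well plates; 48 h exposure; 5 concentrations. Endpoints by linear interpolation between flanking doses. Not reached: highest tested concentration assigned. The concentration for 50% growth inhibition is given as GI50.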 Activity calls are given as the source filed them. Cut-off read from the data, not from the text of the source: active = GI50 up to about 1.1 µM and inactive = higher.

Experiments:
Assay in all cases: DTP human tumour cell line panel, 48 h
OVCAR-3 = system: OVCAR-3
Malme-3M = system: Malme-3M
LXFL 529 = system: LXFL 529
SR = system: SR
RXF 393 = system: RXF 393
CAKI-1 = system: CAKI-1
SK-MEL-5 = system: SK-MEL-5
K562 = system: K562
HT-29 = system: HT-29
SNB-78 = system: SNB-78
NCI-H226 = system: NCI-H226
OVCAR-5 = system: OVCAR-5
SNB-19 = system: SNB-19
COLO 205 = system: COLO 205
ACHN = system: ACHN
KM12 = system: KM12
M19-MEL = system: M19-MEL
NCI-H460 = system: NCI-H460
DLD-1 = system: DLD-1

Measured: GI50

Cc1[nH]c2ccccc2c1C1Cc2ccccc2N1C(=O)/C=C/C=C/c1ccccc1 (stereo not drawn)
inactive: OVCAR-3 13.1 µM | Malme-3M > 100 µM | LXFL 529 > 100 µM | SR > 100 µM | RXF 393 > 100 µM | CAKI-1 > 100 µM | SK-MEL-5 > 100 µM | K562 > 100 µM | HT-29 > 100 µM | SNB-78 > 100 µM | NCI-H226 > 100 µM | OVCAR-5 > 100 µM | SNB-19 > 100 µM | COLO 205 > 100 µM | ACHN > 100 µM | KM12 > 100 µM | M19-MEL > 100 µM | NCI-H460 > 100 µM | DLD-1 > 100 µM

[O-][n+]1c(-c2ccccc2)c2nc3ccccc3nc2c2ccccc21
inactive: OVCAR-3 > 100 µM | Malme-3M > 100 µM | LXFL 529 7.78 µM | RXF 393 > 100 µM | CAKI-1 > 100 µM | SK-MEL-5 > 100 µM | K562 > 100 µM | HT-29 > 100 µM | SNB-78 27.5 µM | NCI-H226 > 100 µM | OVCAR-5 > 100 µM | SNB-19 > 100 µM | COLO 205 > 100 µM | ACHN > 100 µM | KM12 > 100 µM | M19-MEL > 100 µM | NCI-H460 > 100 µM | DLD-1 > 100 µM

Nc1ncnc2c1N=CN(Oc1ccccc1)N2
inactive: OVCAR-3 > 100 µM | Malme-3M 18.3 µM | LXFL 529 > 100 µM | SR > 100 µM | RXF 393 > 100 µM | CAKI-1 > 100 µM | SK-MEL-5 > 100 µM | K562 > 100 µM | HT-29 > 100 µM | SNB-78 > 100 µM | NCI-H226 > 100 µM | OVCAR-5 > 100 µM | COLO 205 > 100 µM | ACHN > 100 µM | KM12 > 100 µM | M19-MEL > 100 µM | NCI-H460 > 100 µM | DLD-1 > 100 µM

O=C1c2cccc(O)c2C(=O)c2c(O)cccc21 [DANTHRON]
inactive: OVCAR-3 28.3 µM | LXFL 529 > 100 µM | SR 43.3 µM | RXF 393 92.5 µM | CAKI-1 33.7 µM | K562 92.9 µM | HT-29 35.8 µM | SNB-78 > 100 µM | NCI-H226 > 100 µM | OVCAR-5 > 100 µM | SNB-19 > 100 µM | COLO 205 22 µM | ACHN > 100 µM | KM12 > 100 µM | M19-MEL 3.66 µM | NCI-H460 30.3 µM | DLD-1 45 µM

O=C1/C(=C/c2ccccc2)CN(C(=O)OCC(Cl)(Cl)Cl)C/C1=C\c1ccccc1
inactive: OVCAR-3 4.19 µM | Malme-3M 3.2 µM | LXFL 529 1.78 µM | SR 2.07 µM | RXF 393 1.68 µM | SK-MEL-5 1.55 µM | K562 1.32 µM | HT-29 1.6 µM | SNB-78 1.34 µM | OVCAR-5 5.52 µM | SNB-19 3.27 µM | COLO 205 3.73 µM | ACHN 1.98 µM | KM12 1.69 µM | M19-MEL 1.39 µM | NCI-H460 2.1 µM | DLD-1 1.91 µM

C/C(=N\NS(=O)(=O)c1ccccc1)c1ccc(Cl)c(Cl)c1
inactive: OVCAR-3 25.3 µM | Malme-3M 68.2 µM | LXFL 529 34.5 µM | SR 62.2 µM | RXF 393 55.3 µM | CAKI-1 75.2 µM | SK-MEL-5 42.5 µM | K562 86.5 µM | HT-29 44.7 µM | SNB-78 > 100 µM | NCI-H226 62.8 µM | OVCAR-5 > 100 µM | COLO 205 26.2 µM | ACHN 46.6 µM | KM12 71.1 µM | M19-MEL 57.4 µM | NCI-H460 46.1 µM | DLD-1 41.8 µM

CCOC(=O)c1cn2c([nH]c3ccccc32)c(C#N)c1=O
inactive: OVCAR-3 > 100 µM | Malme-3M > 100 µM | LXFL 529 > 100 µM | SR > 100 µM | RXF 393 > 100 µM | CAKI-1 > 100 µM | SK-MEL-5 > 100 µM | K562 > 100 µM | HT-29 > 100 µM | SNB-78 > 100 µM | NCI-H226 > 100 µM | OVCAR-5 > 100 µM | SNB-19 > 100 µM | COLO 205 41.6 µM | ACHN > 100 µM | KM12 > 100 µM | M19-MEL > 100 µM | NCI-H460 47 µM | DLD-1 99.5 µM

O=C(CC(=O)C1CCOC1=O)C(=O)Nc1ccc(Cl)cc1 (stereo not drawn)
inactive: OVCAR-3 > 100 µM | Malme-3M > 100 µM | LXFL 529 > 100 µM | RXF 393 > 100 µM | CAKI-1 > 100 µM | SK-MEL-5 > 100 µM | K562 > 100 µM | HT-29 > 100 µM | SNB-78 > 100 µM | NCI-H226 > 100 µM | OVCAR-5 > 100 µM | SNB-19 > 100 µM | COLO 205 > 100 µM | ACHN > 100 µM | KM12 > 100 µM | M19-MEL > 100 µM | NCI-H460 > 100 µM | DLD-1 > 100 µM

CCCSS[C@H]1NC(=O)[C@H]1NC(=O)COc1ccccc1
inactive: OVCAR-3 17.3 µM | Malme-3M 13.8 µM | LXFL 529 5.66 µM | SR 3.16 µM | RXF 393 16.1 µM | CAKI-1 17.3 µM | SK-MEL-5 22.8 µM | K562 6.19 µM | HT-29 19.8 µM | SNB-78 25.8 µM | OVCAR-5 59 µM | SNB-19 > 100 µM | COLO 205 12.3 µM | ACHN 16.6 µM | KM12 17.2 µM | M19-MEL 17.9 µM | NCI-H460 17.6 µM | DLD-1 11.1 µM

C=C(C(=C)N1N=NC2C3CCC(C3)C21)N1N=NC2C3CCC(C3)C21 (stereo not drawn)
inactive: OVCAR-3 > 100 µM | Malme-3M > 100 µM | LXFL 529 > 100 µM | SR 38.7 µM | RXF 393 > 100 µM | CAKI-1 > 100 µM | SK-MEL-5 > 100 µM | K562 65.2 µM | HT-29 > 100 µM | SNB-78 > 100 µM | OVCAR-5 > 100 µM | SNB-19 > 100 µM | COLO 205 > 100 µM | ACHN > 100 µM | KM12 > 100 µM | M19-MEL > 100 µM | NCI-H460 > 100 µM | DLD-1 > 100 µM

Cc1cc(N(CCC#N)CCC#N)ccc1/C=C(\NC(=O)/C=C/c1ccccc1)C(=O)N=[N+]=[N-]
inactive: OVCAR-3 7.01 µM | Malme-3M > 100 µM | LXFL 529 > 100 µM | RXF 393 34.8 µM | CAKI-1 > 100 µM | SK-MEL-5 > 100 µM | K562 > 100 µM | HT-29 > 100 µM | SNB-78 44.4 µM | NCI-H226 > 100 µM | OVCAR-5 > 100 µM | SNB-19 77.8 µM | COLO 205 > 100 µM | ACHN > 100 µM | KM12 2.91 µM | M19-MEL > 100 µM | NCI-H460 > 100 µM | DLD-1 > 100 µM
